This note sets out measurements from patent publication EP0917465B1, “ANTIMALARIAL AND ANTI-BABESIOSIS AGENTS AND PHARMACEUTICAL COMPOSITIONS CONTAINING THE SAME AGENTS” (priority 1996, dated 1998).

Like-named read-outs stand apart in the source and are kept apart here.

The subject of one series is Plasmodium falciparum. As to the kind of experiment: In vitro antimalarial activity, (3H) hypoxanthine incorporation in infected human erythrocytes (Desjardins test). It counts as cell-based. The conditions noted are these: read-out: IC50 exprimée en micromoles. An excerpt: L'activité antipaludéenne des dérivés selon les exemples précédents est testée sur l'humain infesté par Plasmodium falciparum. Le produit à tester est mis en contact avec les érythrocytes humains infectés pendant 24 heures. Un précurseur radioactif d'acides nucléiques l'Hypoxanthine (^3H) est ensuite ajouté. Le précurseur ne s'incorpore que dans les cellules infectées par un parasite en croissance, c'est à dire dans les cellules que la drogue n'aura pas affectées.
L'aptitude ou non à incorporer le précurseur reflète donc la viabilité des cellules impaludées. La durée des tests est de 60 à 70 heures ( test de DESJARDINS R.E. , CANFIELD C.J., HATNES J.D. et CHULAY J.D., Antimicrob. Agents Chemother. 1979, 16, p 710-718 ). Les résultats sont consignés dans le tableau I ci-après, sous forme de IC50 (ou DE50), soit la concentration de produit dans le milieu expérimental capable d'inhiber in vitro la croissance du parasite d'une valeur de 50%.

The subject of series [1] is Babesia Bovis, Babesia Canis. As to the kind of experiment: In vitro anti-Babesia activity, (3H) hypoxanthine incorporation. It is filed as cell-based. The following applies: read-out: Activité/ Babesia à 10 millimole. The source says:
Le procédé de criblage d'activité anti-malaria, basé sur l'incorporation de l'(^3H) Hypoxanthine par le parasite, est utilisé pour tester l'activité anti-métabolique de tels composés sur Babesia Bovis, Babesia Canis. Une relation étroite est trouvée entre le taux d'incorporation de (^3H) Hypoxanthine dans une mesure standard et le pourcentage de cellules parasitées, déterminé par examen microscopique. Cette activité métabolique est quantifiée et évaluée dans le tableau ci-dessous par la cotation +++ pour les molécules affichant dans le test une inhibition de 50 % de l'incorporation de (^3H) Hypoxanthine (ID 50), ces molécules étant à une concentration inférieure ou égale à 0,01 Micromolaire. La cotation est de ++ pour la même activité à une concentration de 0,01 à 0.1 micromolaire et enfin de + pour une concentration inférieure ou égale à 1 Micromolaire.

For series [2], the system named is Plasmodium vinckei, petteri, ou chabaudi. As to the kind of experiment: Therapeutic index in infected mice: 4-day Peters test activity versus semi-chronic toxicity (DL 50). It is filed as in vivo, souris Swiss mâles. The following applies: ratio of activity to toxicity under identical conditions, intraperitoneal or subcutaneous, twice a day for 4 days. An excerpt: Afin d'évaluer l'index thérapeutique des divers produits, on a mesuré l'activité de ceux-ci dans un test in vivo et comparé à la toxicité aiguë chez l'animal . Cette activité est mesurée suivant le test décrit par PETERS W. ( Chemotherapy and Drug résistance in Malaria, 1970). Un composé est administré pendant quatre jours consécutifs à des souris préalablement impaludées par Plasmodium vinckei, petteri, ou chabaudi, ledit composé étant dissous dans une solution de NaCI à 0.9 %. Les préparations sont ainsi administrées par voie intrapéritonéale ou par voie sous-cutanée à des souris Swiss mâles infectées par voie IV, avec Plasmodium petterei ou Plasmodium chabaudi (10^6 cellules infectées ). Le composé est administré deux fois par jour pendant 4 jours consécutifs, la première injection étant pratiquée 2 heures après l'infestation et la deuxième, 10 heures après. La parasitémie est déterminée par un frottis, le jour suivant la fin du traitement. La toxicité est mesurée in vivo selon la même méthode, les animaux ayant reçu dans les conditions d'administration ci-dessus, 2 injections par jour pendant 4 jours ( toxicité semi chronique). Les résultats sont exprimés sous forme de DL 50, soit la dose ayant entraîné la mort de 50% des animaux.
Les résultats des essais sont résumés dans le tableau I ci-après sous forme d'index thérapeutique, soit le rapport de l'activité à la toxicité mésurées dans des conditions identiques comme décrit ci-dessus.

Where [3] appears, read: Plasmodium falciparum, Erythrocyte, concentration inhibiting in vitro parasite growth by 50 %, human erythrocytes infected with Plasmodium falciparum, 24 h contact, test lasts 60 to 70 h.
[4] abbreviates: class of ID 50 for (3H) hypoxanthine incorporation.
The mark [5] stands for this setting: concentration inhibiting in vitro parasite growth by 50 %, human erythrocytes infected with Plasmodium falciparum, 24 h contact, test lasts 60 to 70 h.

Turning to `C[N+]1(CCCCCCCCCCCCCCCC[N+]2(C)CCOCC2)CCOCC1` [EXEMPLE 21, 1,1'-(1.16-hexadecanediyl) bis (1-methylmorpholinium) dibromure], the IC50 in the series with Plasmodium falciparum (setting [3]) was 1 nM; in series [1] (setting [4]), less than 10 nM.
Take `C#CCC[N+](C)(C)CCCCCCCCCCCCCC[N+](C)(C)CCC#C` [EXEMPLE 26, N,N'-di (3-butynyl)-N, N, N', N'-tetramethyl 1,14-tetradecanediaminium dibromure]: the “Index thérapeutique” value in series [2] was determined as 45. Besides, the IC50 in the series on Plasmodium falciparum (Plasmodium falciparum, Erythrocyte) was 40 nM; in series [1], 10 to 100 nM.
Regarding `CCC[N+](C)(CC)CCCCCCCCCCCCCCCCC[N+](C)(CC)CCC` (stereo not drawn) [EXEMPLE 4, N,N'-dimethyl-N, N'-diethyl-N, N'-dipropyl-1, 17-heptadecanediaminium, dibromure], the IC50 with Plasmodium falciparum (setting [3]) was 2 nM; in series [1] (setting [4]), 10 to 100 nM.
The corresponding values for `CCC[N+](C)(CC)CCCCCCCCCCCCCCCCCCCCCC[N+](C)(CC)CCC` (stereo not drawn) [EXEMPLE 7, N,N'-dimethyl-N, N'-diethyl-N, N'-dipropyl-1,22-Cosanediaminium, dibromure] are 10 nM and 10 to 100 nM.
The corresponding values for `CCC[N+](C)(CC)CCCCCCCCCCCCCCCC[N+](C)(CC)CCC` (stereo not drawn) [EXEMPLE 3, N.N'-dimethyl-N.N'-diethyl-N, N'-dipropyl-1,16-exadecanediaminium, dibromure] are 3 nM and 10 to 100 nM.
The matching figures for `CCC[N+](CCC)(CCC)CCCCCCCCCCCCCCCCCCCCCCCC[N+](CCC)(CCC)CCC` [EXEMPLE 11, N, N, N, N', N', N' hexapropyl-1,24-tetracosanediaminium, dibromure]: 1600 nM and 100 to 1000 nM.
`CCC[N+](C)(CC)CCCCCCCCCCCCCCCCCC[N+](C)(CC)CCC` (stereo not drawn) [EXEMPLE 5, N,N'-dimethyl-N,N'-diethyl-N,N'-dipropyl-1,18-octadecanediaminium, dibromure]: the IC50 in the series on Plasmodium falciparum (setting [3]) is 1 nM; in series [1] (setting [4]) it was less than 10 nM.
The corresponding values for `C#CC[N+](C)(C)CCCCCCCCCCCCCC[N+](C)(C)CC#C` [EXEMPLE 24, N,N'-di (2-propynyl)-N,N,N',N'-tetramethyl-1,14-tetradecane diaminium dibromure] are 7 nM and 10 to 100 nM.
Consider `CCC[N+](CCC)(CCC)CCCCCCCCCCCCCC[N+](CCC)(CCC)CCC` [EXEMPLE 8, N, N, N, N', N', N' hexapropyl-1, 14-tetradecanediaminium, dibromure], for which the figures for the IC50 (with Plasmodium falciparum (setting [3]); in series [1] (setting [4])) were 100 nM and 100 to 1000 nM, respectively.
On to `CCC[N+](CCC)(CCC)CCCCCCCCCCCCCCCC[N+](CCC)(CCC)CCC` [EXEMPLE 12, N, N, N, N', N', N' hexapropyl-1,16-hexadecanediaminium, dibromure], for which the figures for the IC50 (in the series on Plasmodium falciparum (setting [5]); in series [1] (setting [4])) were 1 nM and 10 to 100 nM, respectively.
Regarding `CCC[N+](CCC)(CCO)CCCCCCCCCCCCCC[N+](CCC)(CCC)CCO` [EXEMPLE 27, N, N'-di-(2-hydroxyethyl) -N, N, N', N'-tetrapropyl-1, 14 tetradecane diaminium dibromure], the results for the IC50 (in the series on Plasmodium falciparum (setting [3]); in series [1] (setting [4])) were 10 nM and 10 to 100 nM, respectively.
Regarding `CCCCCCCCCCCC[N+](C)(C)CCCCCCCCCCCCCCCCCC[N+](C)(C)CCCCCCCCCCCC` [EXEMPLE 23], the results for the IC50 (in the series with Plasmodium falciparum (setting [3]); in series [1] (setting [4])) were 100 nM and 100 to 1000 nM, respectively.
The corresponding values for `CCCCCCCCCCCC[N+](C)(C)CCCCCCCCCCCCCCCC[N+](C)(C)CCCCCCCCCCCC` [EXEMPLE 22, N,N'-didodecyl-N,N,N',N'-tetramethyl- 1,16 hexadecanediaminium dibromure] are 1000 nM and 10 to 100 nM.
The corresponding values for `CCC[N+](CCC)(CCO)CCCCCCCCCCCCCCCCCCCC[N+](CCC)(CCC)CCO` [EXEMPLE 30, N, N'-di-(2-hydroxyethyl)-N, N, N', N'-tetrapropyl-1,20-eicosanediaminium dibromure] are 0.3 nM and less than 10 nM.
The matching figures for `CCC[N+](C)(CC)CCCCCCCCCCCCCC[N+](C)(CC)CCC` (stereo not drawn) [EXEMPLE1, N, N'-dimethyl-N, N'-diethyl-N, N'-dipropyl-1, 14 tetradecanediaminium, dibromure]: 10 nM and 10 to 100 nM.
Turning to `CC[N+](C)(CC)CCCCCCCCCCCCCCCC[N+](C)(CC)CC` [EXEMPLE 13, N,N'-dimethyl-N,N,N',N'-tetraethyl-1,16-hexadecanediaminium, dibromure], the IC50 with Plasmodium falciparum (setting [3]) is 0.5 nM; in series [1] (setting [4]) it was less than 10 nM.
The matching figures for `CCC[N+](CCC)(CCO)CCCCCCCCCCCCCCCC[N+](CCC)(CCC)CCO` [EXEMPLE 29, N, N'-di-(2-hydroxyethyl) -N, N, N', N'-tetrapropyl-1, 1 6 hexadecane diaminium dibromure]: 5 nM and 10 to 100 nM.
The matching figures for `CCC[N+](CCC)(CCCCCCCCCCCCCC[N+](CCC)(CCC)CCOCC)CCOCC` [EXEMPLE 28, N, N'-di-(2-ethoxyethyl)-N, N, N', N'-tetrapropyl-1, 14 tetradecanediaminium dibromure]: 10 nM and less than 10 nM.
On to `C[N+]1(CCCCCCCCCCCCCCCCCCCCCC[N+]2(C)CCCC2CO)CCCC1CO` (stereo not drawn) [EXEMPLE 19, 1,1'-(1,22-docosanediyl) bis (2-hydroxymethyl1-methylpyrrolidinium) dibromure], for which the IC50 in the series with Plasmodium falciparum (setting [3]) is 70 nM; in series [1] (setting [4]), 100 to 1000 nM.
Regarding `CCC[N+](CCC)(CCC)CCCCCCCCCCCCCCCCCCCC[N+](CCC)(CCC)CCC` [EXEMPLE 10, N, N, N, N', N', N' hexapropyl-1,20-eicosanediaminium, dibromure], the IC50 with Plasmodium falciparum (setting [3]) is 700 nM; in series [1] (setting [4]) it was 100 to 1000 nM.
The corresponding values for `CC[N+](C)(CC)CCCCCCCCCCCCCCCCCCCCC[N+](C)(CC)CC` [EXEMPLE 15, N,N'-dimethyl-N,N,N',N'-tetraethyl-1,21-heneicosanediaminium, dibromure] are 0.003 nM and less than 10 nM.
Turning to `CCC[N+](C)(CC)CCCCCCCCCCCCCCC[N+](C)(CC)CCC` (stereo not drawn) [EXEMPLE 2, N,N'-dimethyl-N, N'-diethyl-N, N'-dipropyl-1, 15-pentadecanediaminium, dibromure], the IC50 was 10 nM in the series on Plasmodium falciparum (setting [3]) and 100 to 1000 nM in series [1] (setting [4]).
In the case of `C[N+]1(CCCCCCCCCCCCCCCC[N+]2(C)CCCC2)CCCC1` [EXEMPLE 17, 1,1-(1,16-hexadecanediyl) bis (1-methylpyrrolidinium) dibromure], the IC50 in the series on Plasmodium falciparum (Erythrocyte, concentration inhibiting in vitro parasite growth by 50 %, human erythrocytes infected with Plasmodium falciparum, 24 h contact, test lasts 60 to 70 h) was 0.6 nM; in series [1] (setting [4]), less than 10 nM.
Regarding `CCC[N+](CCC)(CCC)CCCCCCCCCCCCCCCC[N+](CCC)(CCC)CCC` [EXEMPLE 9, N, N, N, N', N', N' hexapropyl-1, 16-hexadecanediaminium, dibromure], the IC50 in the series on Plasmodium falciparum (setting [5]) is 7 nM; in series [1] (setting [4]) it was less than 10 nM.
On to `CCC[N+](C)(CC)CCCCCCCCCCCCCCCCCCCC[N+](C)(CC)CCC` (stereo not drawn) [EXEMPLE 6, N, N'-dimethyl-N, N'-diethyl-N, N'-dipropyl-1,20-eicosanediaminium, dibromure], for which the figures for the IC50 (in the series on Plasmodium falciparum (setting [3]); in series [1] (setting [4])) were 3 nM and 10 to 100 nM, respectively.
